Measured values: the NIST ThermoML archive (doi:10.1016/j.jct.2005.02.003)
Numbers after ± are expanded uncertainties.

Experiment: molar heat capacity at constant pressure
Conditions: 101.33 kPa

CC(C)COC(C)(C)C [isobutyl tert-butyl ether]
Conditions | molar heat capacity at constant pressure [J/K/mol]
90.5 K, Crystal | 96.03 ± 1.2
90.83 K, Glass | 103.8 ± 2.4
91.51 K, Crystal | 97.11 ± 1.2
91.79 K, Glass | 104.5 ± 2.4
92.51 K, Crystal | 98.28 ± 1.2
92.74 K, Glass | 105.8 ± 2.4
93.5 K, Crystal | 99.11 ± 1.2
93.68 K, Glass | 107.3 ± 2.5
94.49 K, Crystal | 100.2 ± 1.2
94.62 K, Glass | 107.9 ± 2.5
95 K, Crystal | 100.6 ± 1.2
95.48 K, Crystal | 101.4 ± 1.2
95.55 K, Glass | 107.9 ± 2.5
96.48 K, Crystal | 102.4 ± 1.2
96.51 K, Glass | 109.8 ± 2.5
97.47 K, Crystal | 103.3 ± 1.2
97.47 K, Glass | 111.7 ± 2.5
98.41 K, Glass | 112.7 ± 2.5
98.47 K, Crystal | 104.1 ± 1.2
99.31 K, Glass | 114.5 ± 2.5
99.46 K, Crystal | 105 ± 1.2
100 K, Crystal | 105.4 ± 1.2
100.2 K, Glass | 113.8 ± 2.5
100.45 K, Crystal | 105.8 ± 1.2
101.1 K, Glass | 115.2 ± 2.5
101.44 K, Crystal | 106.9 ± 1.2
101.97 K, Glass | 117.3 ± 2.6
102.44 K, Crystal | 108.1 ± 1.2
102.84 K, Glass | 117.8 ± 2.6
103.44 K, Crystal | 108.7 ± 1.2
103.72 K, Glass | 119 ± 2.6
104.44 K, Crystal | 109.5 ± 1.2
104.61 K, Glass | 120.2 ± 2.6
105.43 K, Crystal | 110.5 ± 1.2
105.51 K, Glass | 121.5 ± 2.6
106.41 K, Crystal | 111.5 ± 1.3
106.42 K, Glass | 123.1 ± 2.6
107.34 K, Glass | 124.7 ± 2.6
107.39 K, Crystal | 112.7 ± 1.3
108.29 K, Glass | 126.4 ± 2.6
108.37 K, Crystal | 113.4 ± 1.3
109.25 K, Glass | 128.9 ± 2.7
109.35 K, Crystal | 114.2 ± 1.3
110 K, Crystal | 114.9 ± 1.3
110.23 K, Glass | 130 ± 2.7
110.32 K, Crystal | 115.2 ± 1.3
111.21 K, Glass | 134 ± 2.7
111.31 K, Crystal | 116 ± 1.3
112.18 K, Glass | 138.9 ± 2.7
112.29 K, Crystal | 117 ± 1.3
113.14 K, Glass | 146.1 ± 2.7
113.28 K, Crystal | 117.8 ± 1.3
114.06 K, Glass | 162.4 ± 2.9
114.26 K, Crystal | 118.6 ± 1.3
114.91 K, Glass | 193.9 ± 3.2
115.24 K, Crystal | 119.6 ± 1.3
115.82 K, Liquid | 198.1 ± 0.83
116.22 K, Crystal | 120.5 ± 1.3
116.8 K, Liquid | 199.6 ± 0.83
117.2 K, Crystal | 121.3 ± 1.3
117.8 K, Liquid | 200 ± 0.83
118.17 K, Crystal | 122.1 ± 1.4
118.8 K, Liquid | 200.4 ± 0.83
119.15 K, Crystal | 123.1 ± 1.4
119.8 K, Liquid | 200.7 ± 0.83
120 K, Crystal | 124 ± 1.4
120.12 K, Crystal | 124.2 ± 1.4
120.79 K, Liquid | 201 ± 0.83
121.09 K, Crystal | 124.8 ± 1.4
121.77 K, Liquid | 201.5 ± 0.83
122.76 K, Liquid | 202 ± 0.83
123.02 K, Crystal | 126.6 ± 1.4
123.76 K, Liquid | 202.1 ± 0.83
123.99 K, Crystal | 127.8 ± 1.4
124.76 K, Liquid | 202.3 ± 0.83
124.96 K, Crystal | 128.5 ± 1.4
125.75 K, Liquid | 202.9 ± 0.83
125.92 K, Crystal | 129.5 ± 1.4
126.75 K, Liquid | 202.9 ± 0.83
126.91 K, Crystal | 130.2 ± 1.4
127.1 K, Crystal | 130.5 ± 1.4
127.74 K, Liquid | 203.5 ± 0.83
127.9 K, Crystal | 130.9 ± 1.4
128.73 K, Liquid | 204.2 ± 0.83
128.89 K, Crystal | 131.3 ± 1.4
129.13 K, Crystal | 131.9 ± 1.5
129.7 K, Liquid | 204.7 ± 0.83
130 K, Crystal | 132.7 ± 1.5
130.13 K, Crystal | 132.5 ± 1.5
130.64 K, Liquid | 204.9 ± 0.83
131.57 K, Liquid | 205 ± 0.83
132.12 K, Crystal | 134.9 ± 1.5
132.51 K, Liquid | 205.5 ± 0.83
133.1 K, Crystal | 135.4 ± 1.5
133.45 K, Liquid | 205.9 ± 0.83
134.08 K, Crystal | 135.9 ± 1.5
134.39 K, Liquid | 206.2 ± 0.83
135.33 K, Liquid | 206.4 ± 0.83
136.02 K, Crystal | 137.6 ± 1.5
136.26 K, Liquid | 206.9 ± 0.83
136.98 K, Crystal | 138.6 ± 1.5
137.2 K, Liquid | 207.9 ± 0.83
137.94 K, Crystal | 138.9 ± 1.5
138.89 K, Crystal | 140 ± 1.5
139.84 K, Crystal | 140.1 ± 1.5
140 K, Crystal | 140.5 ± 1.5
